Data from the supplement of paper PMC4862054.

How the values were obtained:
Assay in all cases: normalised viability (% of control), CellTiter-Blue; higher = more viable cells (about 100 = DMSO control)
Conditions in all cases: incubation time: 72 h
BT-474 [1] = system: BT-474
How it was run: (§1)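 Vehicle (100) and a positive kill control (0) anchored the normalisation of each plate, and Z'-factor was used for quality control. Breast cancer cell lines in 20 µl suspension were incubated 72 h over compound in 5 µl medium in 384-well plates, followed by CellTiter-Blue at 560/590 nm. The value is normalised viability at a single listed concentration of the series.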

BT-549 = system: BT-549
How it was run: as §1

CAL-120 = system: CAL-120
How it was run: as §1

CAL-148 [2] = system: CAL-148
How it was run: as §1

CAL-51 [3] = system: CAL-51
How it was run: as §1

CAL-85-1 [4] = system: CAL-85-1
How it was run: as §1

DU-4475 [5] = system: DU-4475
How it was run: as §1

HCC1599 [6] = system: HCC1599
How it was run: as §1

HCC1937 = system: HCC1937
How it was run: as §1

HDQ-P1 = system: HDQ-P1
How it was run: as §1

Hs578T [7] = system: Hs578T
How it was run: as §1

MDA-MB-231 [8] = system: MDA-MB-231
How it was run: as §1

MDA-MB-436 = system: MDA-MB-436
How it was run: as §1

MDA-MB-453 [9] = system: MDA-MB-453
How it was run: as §1

MDA-MB-468 [10] = system: MDA-MB-468
How it was run: as §1

MFM-223 [11] = system: MFM-223
How it was run: as §1

SK-BR-3 [12] = system: SK-BR-3
How it was run: as §1

BT-474 [13] = system: BT-474; remark: listed apart in the source
How it was run: as §1

CAL-148 [14] = system: CAL-148; remark: listed apart in the source
How it was run: as §1

CAL-51 [15] = system: CAL-51; remark: listed apart in the source
How it was run: as §1

CAL-85-1 [16] = system: CAL-85-1; remark: listed apart in the source
How it was run: as §1

DU-4475 [17] = system: DU-4475; remark: listed apart in the source
How it was run: as §1

HCC1599 [18] = system: HCC1599; remark: listed apart in the source
How it was run: as §1

Hs578T [19] = system: Hs578T; remark: listed apart in the source
How it was run: as §1

MDA-MB-231 [20] = system: MDA-MB-231; remark: listed apart in the source
How it was run: as §1

MDA-MB-453 [21] = system: MDA-MB-453; remark: listed apart in the source
How it was run: as §1

MDA-MB-468 [22] = system: MDA-MB-468; remark: listed apart in the source
How it was run: as §1

MFM-223 [23] = system: MFM-223; remark: listed apart in the source
How it was run: as §1

SK-BR-3 [24] = system: SK-BR-3; remark: listed apart in the source
How it was run: as §1

CC1(C)NC(=O)N(c2ccc([N+](=O)[O-])c(C(F)(F)F)c2)C1=O [Nilutamide]
Conditions	normalised viability [%]
BT-474 [1], 100 nM	119
BT-474 [13], 10 nM	122
BT-474 [13], 1000 nM	128
BT-474 [13], 10000 nM	110
BT-549, 100 nM	99.6
CAL-51 [3], 10 nM	101
CAL-51 [15], 3 nM	101
CAL-51 [15], 30 nM	96.1
CAL-51 [15], 100 nM	94.6
CAL-85-1 [4], 10 nM	105
CAL-85-1 [16], 3 nM	98
CAL-85-1 [16], 30 nM	88.9
CAL-85-1 [16], 100 nM	100
CAL-120, 100 nM	99.4
CAL-148 [2], 10 nM	95
CAL-148 [14], 3 nM	95.5
CAL-148 [14], 30 nM	100
CAL-148 [14], 100 nM	97
DU-4475 [5], 10 nM	100
DU-4475 [17], 3 nM	88
DU-4475 [17], 30 nM	108
DU-4475 [17], 100 nM	90.7
HCC1599 [6], 100 nM	95.5
HCC1599 [18], 10 nM	97.9
HCC1599 [18], 1000 nM	82.5
HCC1599 [18], 10000 nM	113
HCC1937, 100 nM	99.7
HDQ-P1, 10 nM	149
Hs578T [7], 100 nM	111
Hs578T [19], 10 nM	108
Hs578T [19], 1000 nM	139
Hs578T [19], 10000 nM	119
MDA-MB-231 [8], 100 nM	106
MDA-MB-231 [20], 10 nM	102
MDA-MB-231 [20], 1000 nM	92.2
MDA-MB-231 [20], 10000 nM	109
MDA-MB-436, 100 nM	96.6
MDA-MB-453 [9], 10 nM	112
MDA-MB-453 [21], 3 nM	120
MDA-MB-453 [21], 30 nM	87.5
MDA-MB-453 [21], 100 nM	109
MDA-MB-468 [10], 100 nM	94.2
MDA-MB-468 [22], 10 nM	115
MDA-MB-468 [22], 1000 nM	103
MDA-MB-468 [22], 10000 nM	103
MFM-223 [11], 100 nM	92.4
MFM-223 [23], 10 nM	108
MFM-223 [23], 1000 nM	98.4
MFM-223 [23], 10000 nM	85.8
SK-BR-3 [12], 100 nM	95.4
SK-BR-3 [24], 10 nM	100
SK-BR-3 [24], 1000 nM	104
SK-BR-3 [24], 10000 nM	132

Cc1ccc(C(=O)Nc2ccc(CN3CCN(C)CC3)c(C(F)(F)F)c2)cc1C#Cc1cnc2cccnn12 [Ponatinib]
Conditions	normalised viability [%]
BT-474 [1], 10 nM	103
BT-474 [13], 1 nM	102
BT-474 [13], 100 nM	110
BT-474 [13], 1000 nM	91.2
BT-549, 10 nM	107
CAL-51 [3], 1 nM	96.6
CAL-51 [15], 0.3 nM	95.2
CAL-51 [15], 3 nM	97.7
CAL-51 [15], 10 nM	89.5
CAL-85-1 [4], 1 nM	95.9
CAL-85-1 [16], 0.3 nM	92.5
CAL-85-1 [16], 3 nM	85.4
CAL-85-1 [16], 10 nM	101
CAL-120, 10 nM	105
CAL-148 [2], 1 nM	103
CAL-148 [14], 0.3 nM	96.8
CAL-148 [14], 3 nM	105
CAL-148 [14], 10 nM	110
DU-4475 [5], 1 nM	105
DU-4475 [17], 0.3 nM	91.6
DU-4475 [17], 3 nM	91.7
DU-4475 [17], 10 nM	84.5
HCC1599 [6], 10 nM	114
HCC1599 [18], 1 nM	95.4
HCC1599 [18], 100 nM	95.4
HCC1599 [18], 1000 nM	64.9
HCC1937, 10 nM	91.6
HDQ-P1, 1 nM	117
Hs578T [7], 10 nM	99.6
Hs578T [19], 1 nM	105
Hs578T [19], 100 nM	110
Hs578T [19], 1000 nM	73.9
MDA-MB-231 [8], 10 nM	101
MDA-MB-231 [20], 1 nM	98.8
MDA-MB-231 [20], 100 nM	82.6
MDA-MB-231 [20], 1000 nM	16.9
MDA-MB-436, 10 nM	101
MDA-MB-453 [9], 1 nM	110
MDA-MB-453 [21], 0.3 nM	102
MDA-MB-453 [21], 3 nM	101
MDA-MB-453 [21], 10 nM	87.3
MDA-MB-468 [10], 10 nM	110
MDA-MB-468 [22], 1 nM	98.2
MDA-MB-468 [22], 1000 nM	78.7
MFM-223 [11], 10 nM	65.5
MFM-223 [23], 1 nM	100
MFM-223 [23], 1000 nM	35.7
SK-BR-3 [12], 10 nM	78
SK-BR-3 [24], 1 nM	104
SK-BR-3 [24], 100 nM	103
SK-BR-3 [24], 1000 nM	71.3

Cn1c(Nc2ccc(C(F)(F)F)cc2)nc2cc(Oc3ccnc(-c4ncc(C(F)(F)F)[nH]4)c3)ccc21 [RAF265]
Conditions	normalised viability [%]
BT-474 [1], 10 nM	103
BT-474 [13], 1 nM	118
BT-474 [13], 100 nM	107
BT-474 [13], 1000 nM	96.4
BT-549, 10 nM	84.1
CAL-51 [3], 1 nM	92.9
CAL-51 [15], 0.3 nM	91.4
CAL-51 [15], 3 nM	94.2
CAL-51 [15], 10 nM	99.1
CAL-85-1 [4], 1 nM	92
CAL-85-1 [16], 0.3 nM	87.4
CAL-85-1 [16], 3 nM	83.3
CAL-85-1 [16], 10 nM	89.8
CAL-120, 10 nM	82.2
CAL-148 [2], 1 nM	94
CAL-148 [14], 0.3 nM	89.4
CAL-148 [14], 3 nM	87.1
CAL-148 [14], 10 nM	89.2
DU-4475 [5], 1 nM	92.1
DU-4475 [17], 0.3 nM	102
DU-4475 [17], 3 nM	95.6
DU-4475 [17], 10 nM	116
HCC1599 [6], 10 nM	97.2
HCC1599 [18], 1 nM	104
HCC1599 [18], 100 nM	106
HCC1599 [18], 1000 nM	106
HCC1937, 10 nM	93.2
HDQ-P1, 1 nM	109
Hs578T [7], 10 nM	89.7
Hs578T [19], 1 nM	97.8
Hs578T [19], 100 nM	90.9
Hs578T [19], 1000 nM	78.3
MDA-MB-231 [8], 10 nM	100
MDA-MB-231 [20], 1 nM	110
MDA-MB-231 [20], 100 nM	86.1
MDA-MB-231 [20], 1000 nM	53.8
MDA-MB-436, 10 nM	98.9
MDA-MB-453 [9], 1 nM	100
MDA-MB-453 [21], 0.3 nM	99.2
MDA-MB-453 [21], 3 nM	109
MDA-MB-453 [21], 10 nM	98.3
MDA-MB-468 [10], 10 nM	104
MDA-MB-468 [22], 1 nM	110
MDA-MB-468 [22], 100 nM	94.2
MDA-MB-468 [22], 1000 nM	80.1
MFM-223 [11], 10 nM	88
MFM-223 [23], 1 nM	94.9
MFM-223 [23], 100 nM	74.7
MFM-223 [23], 1000 nM	43.8
SK-BR-3 [12], 10 nM	102
SK-BR-3 [24], 1 nM	96.2
SK-BR-3 [24], 100 nM	96.3
SK-BR-3 [24], 1000 nM	106

CNCc1ccc(-c2[nH]c3cc(F)cc4c3c2CCNC4=O)cc1 [Rucaparib]
Conditions	normalised viability [%]
BT-474 [1], 100 nM	100
BT-474 [13], 10 nM	108
BT-474 [13], 1000 nM	111
BT-474 [13], 10000 nM	102
BT-549, 100 nM	112
CAL-51 [3], 10 nM	114
CAL-51 [15], 3 nM	119
CAL-51 [15], 30 nM	114
CAL-51 [15], 100 nM	110
CAL-85-1 [4], 10 nM	87.6
CAL-85-1 [16], 3 nM	93.2
CAL-85-1 [16], 30 nM	84.2
CAL-85-1 [16], 100 nM	94.6
CAL-120, 100 nM	93.3
CAL-148 [2], 10 nM	83.4
CAL-148 [14], 3 nM	90.5
CAL-148 [14], 30 nM	87.6
CAL-148 [14], 100 nM	92.6
DU-4475 [5], 10 nM	106
DU-4475 [17], 3 nM	84
DU-4475 [17], 30 nM	96.6
DU-4475 [17], 100 nM	83
HCC1599 [6], 100 nM	114
HCC1599 [18], 10 nM	95.8
HCC1599 [18], 1000 nM	128
HCC1599 [18], 10000 nM	96.2
HCC1937, 100 nM	85.9
HDQ-P1, 10 nM	109
Hs578T [7], 100 nM	75.2
Hs578T [19], 10 nM	112
Hs578T [19], 1000 nM	107
Hs578T [19], 10000 nM	94.4
MDA-MB-231 [8], 100 nM	98
MDA-MB-231 [20], 10 nM	99.2
MDA-MB-231 [20], 1000 nM	84.3
MDA-MB-231 [20], 10000 nM	75.4
MDA-MB-436, 100 nM	129
MDA-MB-453 [9], 10 nM	98.8
MDA-MB-453 [21], 3 nM	111
MDA-MB-453 [21], 30 nM	89.3
MDA-MB-453 [21], 100 nM	110
MDA-MB-468 [10], 100 nM	110
MDA-MB-468 [22], 10 nM	103
MDA-MB-468 [22], 1000 nM	105
MDA-MB-468 [22], 10000 nM	77.5
MFM-223 [11], 100 nM	109
MFM-223 [23], 10 nM	95.4
MFM-223 [23], 1000 nM	99.2
MFM-223 [23], 10000 nM	61.5
SK-BR-3 [12], 100 nM	76.4
SK-BR-3 [24], 10 nM	97.5
SK-BR-3 [24], 1000 nM	98.2
SK-BR-3 [24], 10000 nM	78.5
